{"source": "patent US20180303101A1", "about": "“METHOD OF IMPROVING GRASS QUALITY” (priority 2004, published 2018)", "system": "creeping bentgrass (variety Penncross) turf", "experiment": "Bentgrass color rating after foliar spray (Example 4)", "assay_type": "in vivo", "settings": "6 weeks after treatment; iprodione 4 oz/1000 sq. ft.; Pigment Green 7 6.8 or 13.6 g/1000 sq. ft. in combination, 13.6 g alone", "from_the_text": "Pigment Green 7 was suspended in water and applied as a foliar spray to creeping bentgrass (variety Penncross) turf with a pressurized sprayer at a spray volume of 1.37 gallons of water per 1000 sq. ft. (ca. 560 l/ha). Pigment Green 7 was applied at rates of 6.8, 13.9, and 20.4 grams per 1000 sq. ft. (0.73, 1.5, and 2.2 kg/ha, respectively). Each treatment was replicated 4 times. An untreated plot was included and was also replicated four times. The average color of the bentgrass was visually evaluated at 6 weeks after treatment. Color was evaluated on a qualitative scale from 1-9, with 9 being the highest quality and 1 the lowest quality.\nThe procedure of Example 2 was repeated using iprodione fungicide (in the form of 26 GT brand iprodione fungicide) at 4 oz/1000 sq. ft. (ca. 1.3 mL/m2), iprodione at 4 oz/1000 sq. ft. (ca. 1.3 mL/m2) plus Pigment Green 7 at 6.8 g/1000 sq. ft. (0.73 kg/ha), iprodione at 4 oz/1000 sq. ft. plus Pigment Green 7 at 13.6 g/1000 sq. ft. (1.5 kg/ha), and Pigment Green 7 at 13.6 g/1000 sq. ft. (1.5 kg/ha). At 6 weeks after treatment, the color ratings were as follows.", "data": [{"compound": "CC(C)NC(=O)N1CC(=O)N(c2cc(Cl)cc(Cl)c2)C1=O", "note": "[iprodione, 3-(3,5-dichlorophenyl)-N-(l-methylethyl)-2,4-dioxo-1-imidazolidinecarbox-amide, reference compound]", "values": [{"measurement": "Color rating versus untreated check", "value": "not significantly different than the untreated check"}]}]}
